From patent US12509431B2, “1,4-dihydroquinazolinone compounds and uses thereof” (Edgewise Therapeutics, Inc., priority 2022, dated 2025)

Experiments:
Assay type in all cases: biochemical
Conditions in all cases: Table 7
[1] = test system: Rabbit Skeletal myofibrils (rabbit psoas muscle); experiment: Myofibril ATPase assay (PK/LDH NADH-coupled), skeletal myofibrils
Summary of the method: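 Rabbit psoas myofibrils in pCa (PIPES/CaCl2/EGTA, pH 7.0) buffer; ADP coupled via PK/LDH to NADH loss, read at 340 nm every 1.5–2 min for 75 min. Slopes normalized to vehicle (100%) and fit to 4-parameter logistic for EC25, plus EC50 for inhibitors.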

[2] = target: T1, Porcine Ventricle myofibrils (left ventricle of Yucatan minipigs) (Sus scrofa, UniProt P79293); experiment: Myofibril ATPase assay (PK/LDH NADH-coupled), ventricle myofibrils
T1 construct: Myofibrils from porcine cardiac muscle was isolated from the left ventricle of Yucatan minipigs; tissue Exemplar Genetics; host or cells: left ventricle of Yucatan minipigs
Summary of the method: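 Yucatan minipig left-ventricle myofibrils; ATPase measured by PK/LDH-coupled NADH loss at 340 nm, read every 1.5-2 min for 75 min. Slopes normalized to vehicle (100%) and fit to 4-parameter logistic model; EC25 and, for inhibitors, EC50 calculated.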

Porcine Atria myofibrils = experiment: Myofibril ATPase assay (PK/LDH NADH-coupled), atria myofibrils
Summary of the method: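 Porcine atrial myofibril ATPase followed via PK/LDH-coupled NADH depletion, absorbance at 340 nm read every 1.5-2 min over 75 min. Slopes (mAU/min) normalized to vehicle as 100% and fit to a 4-parameter logistic; EC25% derived, plus EC50% for inhibitors.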

T1 sequence (P79293 whole entry): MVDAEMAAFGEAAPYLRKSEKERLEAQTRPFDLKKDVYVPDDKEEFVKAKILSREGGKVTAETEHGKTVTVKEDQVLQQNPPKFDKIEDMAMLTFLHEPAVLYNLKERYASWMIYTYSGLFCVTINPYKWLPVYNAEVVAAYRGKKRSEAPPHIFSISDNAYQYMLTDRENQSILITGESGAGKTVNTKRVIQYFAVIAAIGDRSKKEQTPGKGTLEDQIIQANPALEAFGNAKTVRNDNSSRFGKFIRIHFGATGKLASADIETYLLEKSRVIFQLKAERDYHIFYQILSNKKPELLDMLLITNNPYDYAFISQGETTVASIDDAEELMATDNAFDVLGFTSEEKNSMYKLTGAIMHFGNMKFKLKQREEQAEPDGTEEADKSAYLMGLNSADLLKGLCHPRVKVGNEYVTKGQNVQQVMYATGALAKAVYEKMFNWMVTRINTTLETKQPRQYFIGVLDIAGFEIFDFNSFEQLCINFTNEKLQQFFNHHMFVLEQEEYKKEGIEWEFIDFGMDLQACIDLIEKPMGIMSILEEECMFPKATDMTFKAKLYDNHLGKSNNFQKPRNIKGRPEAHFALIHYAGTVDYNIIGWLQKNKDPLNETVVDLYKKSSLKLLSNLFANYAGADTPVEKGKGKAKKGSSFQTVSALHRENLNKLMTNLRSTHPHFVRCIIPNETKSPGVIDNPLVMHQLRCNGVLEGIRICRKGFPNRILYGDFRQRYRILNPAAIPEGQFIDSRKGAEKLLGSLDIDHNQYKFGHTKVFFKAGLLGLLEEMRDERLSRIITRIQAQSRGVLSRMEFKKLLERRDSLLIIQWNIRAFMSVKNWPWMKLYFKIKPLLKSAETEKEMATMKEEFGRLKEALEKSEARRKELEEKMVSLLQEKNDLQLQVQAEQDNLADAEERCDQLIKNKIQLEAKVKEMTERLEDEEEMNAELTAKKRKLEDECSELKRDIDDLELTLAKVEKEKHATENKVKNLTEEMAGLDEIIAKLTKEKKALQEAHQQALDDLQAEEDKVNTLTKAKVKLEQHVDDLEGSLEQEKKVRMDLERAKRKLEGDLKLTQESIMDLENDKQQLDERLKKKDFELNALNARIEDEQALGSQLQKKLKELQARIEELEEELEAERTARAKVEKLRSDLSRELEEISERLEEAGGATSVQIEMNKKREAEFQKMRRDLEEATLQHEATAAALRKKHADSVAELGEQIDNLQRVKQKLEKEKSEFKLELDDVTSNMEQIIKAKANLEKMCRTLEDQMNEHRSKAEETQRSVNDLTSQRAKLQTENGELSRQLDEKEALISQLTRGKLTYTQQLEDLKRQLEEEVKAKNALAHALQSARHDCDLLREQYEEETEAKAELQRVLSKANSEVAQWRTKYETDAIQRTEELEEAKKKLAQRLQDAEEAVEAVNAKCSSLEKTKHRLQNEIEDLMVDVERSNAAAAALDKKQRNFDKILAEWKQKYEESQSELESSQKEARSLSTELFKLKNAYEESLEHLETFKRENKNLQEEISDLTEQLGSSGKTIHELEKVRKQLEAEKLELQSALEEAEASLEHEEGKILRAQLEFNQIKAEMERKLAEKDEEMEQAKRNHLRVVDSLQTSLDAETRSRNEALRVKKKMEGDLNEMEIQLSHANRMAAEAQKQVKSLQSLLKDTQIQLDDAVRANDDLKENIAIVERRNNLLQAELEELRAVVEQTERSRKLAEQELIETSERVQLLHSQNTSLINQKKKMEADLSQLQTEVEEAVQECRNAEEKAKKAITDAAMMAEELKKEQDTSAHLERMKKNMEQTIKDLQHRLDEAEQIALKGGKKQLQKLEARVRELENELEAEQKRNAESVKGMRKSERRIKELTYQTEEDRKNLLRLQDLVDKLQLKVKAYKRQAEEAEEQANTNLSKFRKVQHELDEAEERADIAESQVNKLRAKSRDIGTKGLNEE

Row | Structure (SMILES) | Rabbit Psoas IC25 [1] [µM] | Porcine Ventricle IC25 [2] [µM] | Porcine Atria IC25 (Porcine Atria myofibrils) [µM]
1 | O=C(CN1Cc2c(ccnc2C(F)(F)F)NC1=O)N[C@@H](CO)c1ncc(F)cc1F [Compound N50] | 2.278 | 100 | 9.91
2 | CC(NC(=O)CN1Cc2c(ccnc2C2CC2(F)F)NC1=O)c1ncc(F)cc1F (stereo not drawn) [Compound N51] | 100 | 100 | 100.00
3 | Cc1c(F)cnc2c1CN(CC(=O)N[C@H](C)c1ncc(F)cc1F)C(=O)N2 [Compound N52] | 15.28 | 100 | 98.42
4 | Cc1c(F)cnc2c1CN(CC(=O)N[C@@H](C)c1ncc(F)cc1F)C(=O)N2 [Compound N53] | 100 | 100 | 100.00
5 | C[C@H](NC(=O)CN1Cc2c(Cl)cncc2NC1=O)c1ccc(F)cc1F [Compound N56, 2-{5-Chloro-2-oxo-1H,4H-pyrido[3,4-d]pyrimidin-3-yl}-N-[(1S)-1-(2,4-difluorophenyl)ethyl]acetamide] | 86.07 | 100 | 100.00
6 | Cc1c(F)cnc2c1CN(CC(=O)N[C@@H](C)c1ccc(F)cc1F)C(=O)N2 [Compound N57, N-[(1S)-1-(2,4-Difluorophenyl)ethyl]-2-{6-fluoro-5-methyl-2-oxo-1H,4H-pyrido[2,3-d]pyrimidin-3-yl}acetamide] | 6.748 | 100 | 12.15
7 | C[C@@H](NC(=O)CN1Cc2nc(C#N)ccc2NC1=O)c1ncc(F)cc1F [Compound N58] | 100 | 100 | 100.00
8 | C[C@H](NC(=O)CN1Cc2nc(C#N)ccc2NC1=O)c1ncc(F)cc1F [Compound N59] | 100 | 100 | 6.80
9 | C[C@H](NC(=O)CN1Cc2nc(C#N)ccc2NC1=O)c1ccc(F)cc1F [Compound N60, (S)-2-(6-Cyano-2-oxo-1,4-dihydropyrido[3,2-d]pyrimidin-3(2H)-yl)-N-(1-(2,4-difluorophenyl)ethyl)acetamide] | 1.385 | 81.4 | 1.15
10 | C[C@@H](NC(=O)CN1Cc2c(ccnc2C#N)NC1=O)c1ncc(F)cc1F [Compound N61] | 100 | 100 | 100.00
11 | C[C@H](NC(=O)CN1Cc2c(ccnc2C#N)NC1=O)c1ncc(F)cc1F [Compound N62] | 0.1508 | 5.161 | 0.97
12 | C[C@@H](NC(=O)CN1Cc2c(F)cncc2NC1=O)c1ncc(F)cc1F [Compound N63] | 100 | 100 | 100.00
13 | C[C@H](NC(=O)CN1Cc2c(F)cncc2NC1=O)c1ncc(F)cc1F [Compound N64] | 16.71 | 100 | 25.37
14 | CC(NC(=O)CN1Cc2c(ccnc2C(N)=O)NC1=O)c1ncc(F)cc1F (stereo not drawn) [Compound N65] | 100 | 100 | 100.00
15 | C[C@H](NC(=O)CN1Cc2c(ccnc2OC2COC2)NC1=O)c1ccc(F)cc1F [Compound N66] | 0.3112 | 100 | 29.35
16 | COc1ccc2c(n1)C1(CC1)N(CC(=O)N[C@H](C)c1ncc(F)cc1F)C(=O)N2 [Compound N67] | 100 | 100 | 100.00
17 | COc1ccc2c(n1)C1(CC1)N(CC(=O)N[C@@H](C)c1ncc(F)cc1F)C(=O)N2 [Compound N68] | 0.0442 | 1.833 | 0.13
18 | C[C@@H](NC(=O)CN1Cc2cc(F)cnc2NC1=O)c1ncc(F)cc1F [Compound N69] | 100 | 100 | 100.00
19 | C[C@H](NC(=O)CN1Cc2cc(F)cnc2NC1=O)c1ncc(F)cc1F [Compound N70] | 100 | 100 | 100.00

Row | Structure (SMILES) | Rabbit Psoas IC25 [1] [µM] | Porcine Ventricle IC25 [2] [µM] | Porcine Atria IC25 (Porcine Atria myofibrils) [µM]
20 | C[C@H](NC(=O)CN1Cc2cc(F)cnc2NC1=O)c1ccc(F)cc1F [Compound N71, N-[(1S)-1-(2,4-Difluorophenyl)ethyl]-2-{6-fluoro-2-oxo-1H,4H-pyrido[2,3-d]pyrimidin-3-yl}acetamide] | 2.804 | 100 | 36.26
21 | C[C@H](NC(=O)CN1Cc2c(F)cncc2NC1=O)c1ccc(F)cc1F [Compound N72, N-[(1S)-1-(2,4-Difluorophenyl)ethyl]-2-{5-fluoro-2-oxo-1H,4H-pyrido[3,4-d]pyrimidin-3-yl}acetamide] | 0.4483 | 39.96 | 3.14
22 | C[C@@H](NC(=O)CN1Cc2c(ccnc2C(F)(F)F)NC1=O)c1ccc(C#N)cc1F [Compound N73] | 35.6 | 100 | 100.00
23 | C[C@H](NC(=O)CN1Cc2c(ccnc2C(F)(F)F)NC1=O)c1ccc(C#N)cc1F [Compound N74] | 0.07565 | 1.559 | 0.54
24 | C[C@@H](NC(=O)CN1Cc2cc(Cl)cnc2NC1=O)c1ncc(F)cc1F [Compound N75] | 100 | 100 | 100.00
25 | C[C@H](NC(=O)CN1Cc2cc(Cl)cnc2NC1=O)c1ncc(F)cc1F [Compound N76] | 100 | 100 | 100.00
26 | C[C@H](NC(=O)CN1C(=O)Nc2cccnc2[C@H]1C)c1ccc(F)cc1F [Compound N77, N—((S)-1-(2,4-difluorophenyl)ethyl)-2-((R)-4-methyl-2-oxo-1,4-dihydropyrido[3,2-d]pyrimidin-3(2H)-yl)acetamide] | 2.441 | 24.08 | 2.11
27 | C[C@H](NC(=O)CN1C(=O)Nc2cccnc2[C@@H]1C)c1ccc(F)cc1F [Compound N78, N—((S)-1-(2,4-difluorophenyl)ethyl)-2-((S)-4-methyl-2-oxo-1,4-dihydropyrido [3,2-d]pyrimidin-3(2H)-yl)acetamide] | 11.14 | 31.94 | 26.68
28 | C[C@@H](NC(=O)CN1Cc2c(ccnc2C(F)(F)F)NC1=O)c1ncc(F)cc1F [Compound N79] | 100 | 100 | 100.00
29 | C[C@H](NC(=O)CN1Cc2c(ccnc2C(F)(F)F)NC1=O)c1ncc(F)cc1F [Compound N80] | 4.79 | 100 | 8.03
30 | C[C@H](NC(=O)CN1Cc2c(ccnc2C#N)NC1=O)c1ccc(F)cc1F [Compound N81] | 0.04549 | 0.545 | 0.24
31 | C[C@H](NC(=O)CN1Cc2cc(Cl)cnc2NC1=O)c1ccc(F)cc1F [Compound N82] | 100 | 100 | 100.00
32 | C[C@H](NC(=O)[C@H](C)N1Cc2ncccc2NC1=O)c1ccc(F)cc1F [Compound N83] | 1.802 | 100 | 0.74
33 | C[C@H](NC(=O)[C@@H](C)N1Cc2ncccc2NC1=O)c1ccc(F)cc1F [Compound N84] | 10.25 | 100 | 3.69
34 | C[C@H](NC(=O)CN1C(=O)Nc2ccncc2[C@H]1C)c1ccc(F)cc1F [Compound N85] | 4.254 | 100 | 18.87
35 | C[C@H](NC(=O)CN1C(=O)Nc2ccncc2[C@@H]1C)c1ccc(F)cc1F [Compound N86] | 10.83 | 100 | 30.96
36 | COc1ccc2c(n1)C1(CC1)N(CC(=O)N[C@@H](C)c1ccc(F)cc1F)C(=O)N2 [Compound N87, N-[(1S)-1-(2,4-Difluorophenyl)ethyl]-2-{6′-methoxy-2′-oxo-1′H-spiro[cyclopropane-1,4′-pyrido[3,2-d]pyrimidin]-3′-yl}acetamide] | 0.0571 | 0.1682 | 0.03
37 | C[C@H](NC(=O)CN1C(=O)Nc2cccnc2C12CC2)c1ccc(F)cc1F [Compound N88] | 0.1726 | 0.7484 | 0.13
38 | CC(C)C[C@@H](C(=O)N[C@@H](C)c1ccc(F)cc1F)N1Cc2nc(F)ccc2NC1=O [Compound N89] | 100 | 100 | 100.00
